Laboratory results from ChEMBL document CHEMBL1148496, “Novel alkylpolyaminoguanidines and alkylpolyaminobiguanides with potent antitrypanosomal activity” (Bioorg Med Chem Lett, 2006).

Experiments:
[1] = biological target: Trypanothione reductase (Trypanosoma cruzi, UniProt P28593); assay: Inhibition of Trypanosoma cruzi TR
[2] = tested on: Trypanosoma brucei brucei; assay: Antitrypanosomal activity against Trypanosoma brucei brucei; format: functional, organism-based
[3] = biological target: T1, Glutathione reductase, mitochondrial (Homo sapiens, UniProt P00390); assay: Inhibition of human glutathione reductase
T1 sequence (P00390 whole entry): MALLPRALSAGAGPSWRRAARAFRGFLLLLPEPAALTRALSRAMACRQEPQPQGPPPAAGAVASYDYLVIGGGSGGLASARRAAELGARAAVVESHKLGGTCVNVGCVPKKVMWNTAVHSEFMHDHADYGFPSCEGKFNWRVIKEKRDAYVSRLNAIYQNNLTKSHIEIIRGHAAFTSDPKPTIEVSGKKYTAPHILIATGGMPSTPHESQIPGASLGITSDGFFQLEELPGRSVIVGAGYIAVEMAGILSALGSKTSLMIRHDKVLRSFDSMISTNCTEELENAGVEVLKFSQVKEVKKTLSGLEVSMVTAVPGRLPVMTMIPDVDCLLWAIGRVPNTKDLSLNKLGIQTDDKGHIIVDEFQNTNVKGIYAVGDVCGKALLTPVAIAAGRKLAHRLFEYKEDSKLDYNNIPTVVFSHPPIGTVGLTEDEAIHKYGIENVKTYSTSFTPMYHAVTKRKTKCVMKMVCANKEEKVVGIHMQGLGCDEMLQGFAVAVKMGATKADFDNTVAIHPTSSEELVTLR

Chain of Trypanothione reductase (P28593 whole entry): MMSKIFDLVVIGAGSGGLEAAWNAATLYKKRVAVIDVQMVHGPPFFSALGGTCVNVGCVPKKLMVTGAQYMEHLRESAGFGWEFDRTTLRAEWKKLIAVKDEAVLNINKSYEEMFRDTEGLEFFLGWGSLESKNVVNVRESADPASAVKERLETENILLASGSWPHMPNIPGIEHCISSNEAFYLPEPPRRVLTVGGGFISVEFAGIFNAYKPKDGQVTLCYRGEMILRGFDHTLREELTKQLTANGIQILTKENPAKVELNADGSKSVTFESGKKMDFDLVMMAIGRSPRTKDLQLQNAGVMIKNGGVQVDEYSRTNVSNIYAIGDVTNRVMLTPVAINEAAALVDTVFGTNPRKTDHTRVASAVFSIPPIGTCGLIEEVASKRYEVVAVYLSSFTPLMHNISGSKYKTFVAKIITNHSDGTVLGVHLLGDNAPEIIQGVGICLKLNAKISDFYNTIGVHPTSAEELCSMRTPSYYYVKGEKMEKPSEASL

SMILES	IC50 [1]	IC50 [2]	IC50 [3]
NC(=NCCCNCCCCCCCNCCCN=C(N)NC1CCCCCC1)NC1CCCCCC1	17700 nM	180 nM	> 100000 nM
NC(=NCCCNCCCNCCCN=C(N)NCC(c1ccccc1)c1ccccc1)NCC(c1ccccc1)c1ccccc1	3600 nM	2050 nM	> 100000 nM
N=C(NCCCNCCCNCCCNC(=N)NC(=N)NCCC(c1ccccc1)c1ccccc1)NC(=N)NCCC(c1ccccc1)c1ccccc1	3680 nM	1760 nM	> 100000 nM
NC(=NCCCNCCCCCCCNCCCN=C(N)NCC(c1ccccc1)c1ccccc1)NCC(c1ccccc1)c1ccccc1	4720 nM	500 nM	> 100000 nM
N=C(NCCCNCCCCCCCNCCCNC(=N)NC(=N)NCC(c1ccccc1)c1ccccc1)NC(=N)NCC(c1ccccc1)c1ccccc1	1660 nM	450 nM	> 100000 nM
N=C(NCCCNCCCNCCCNC(=N)NC(=N)NCC(c1ccccc1)c1ccccc1)NC(=N)NCC(c1ccccc1)c1ccccc1	4160 nM	180 nM	> 100000 nM
N=C(NCCCNCCCCNCCCNC(=N)NCC(c1ccccc1)c1ccccc1)NCC(c1ccccc1)c1ccccc1	4560 nM	3350 nM	> 100000 nM
N=C(NCCCNCCCCNCCCNC(=N)NC(=N)NCC(c1ccccc1)c1ccccc1)NC(=N)NCC(c1ccccc1)c1ccccc1	2740 nM	1050 nM	> 100000 nM
N=C(NCCCNCCCCNCCCNC(=N)NC(=N)NCCC(c1ccccc1)c1ccccc1)NC(=N)NCCC(c1ccccc1)c1ccccc1	2960 nM	190 nM	> 100000 nM
N=C(NCCCNCCCCCCCNCCCNC(=N)NC(=N)NCCC(c1ccccc1)c1ccccc1)NC(=N)NCCC(c1ccccc1)c1ccccc1	950 nM	620 nM	> 100000 nM
NC(=NCCCNCCCCCCCNCCCN=C(N)NCCC(c1ccccc1)c1ccccc1)NCCC(c1ccccc1)c1ccccc1	2240 nM	610 nM	> 100000 nM
N=C(NCCCNCCCCNCCCNC(=N)NCCC(c1ccccc1)c1ccccc1)NCCC(c1ccccc1)c1ccccc1	2970 nM	2400 nM	> 100000 nM
N=C(NCCCNCCCNCCCNC(=N)NCCC(c1ccccc1)c1ccccc1)NCCC(c1ccccc1)c1ccccc1	5070 nM	1950 nM	> 100000 nM
NC(=NCCCNCCCCCCCNCCCN=C(N)NCc1ccccc1)NCc1ccccc1	69500 nM	90 nM	> 100000 nM
